Data published in patent publication US7745413B2, “Collection of traceable compounds and uses thereof” (Centre National de la Recherche Scientifique (CNRS), priority 2004, dated 2010).

Molecular target: T1, GPR50-EGFP receptor (Homo sapiens, UniProt Q13585)
T1 construct: signal peptide (SP) of the pCEP4-SP-EGFP vector (N); expressed in transfected cells
Assay: Real-time measurement of energy transfer (FRET) between fluorescent ligand and GPR50-EGFP receptor on HEK 293 cells
Type: binding
Details: ligand at 500 nM; excitation 470 nm, fluorescence at 510 nm; FIG. 6
Description: The binding of certain molecules was verified with the spectrofluorimeter (equipment previously described (see Example 1)).

T1 sequence (Q13585 9-617 limits assumed): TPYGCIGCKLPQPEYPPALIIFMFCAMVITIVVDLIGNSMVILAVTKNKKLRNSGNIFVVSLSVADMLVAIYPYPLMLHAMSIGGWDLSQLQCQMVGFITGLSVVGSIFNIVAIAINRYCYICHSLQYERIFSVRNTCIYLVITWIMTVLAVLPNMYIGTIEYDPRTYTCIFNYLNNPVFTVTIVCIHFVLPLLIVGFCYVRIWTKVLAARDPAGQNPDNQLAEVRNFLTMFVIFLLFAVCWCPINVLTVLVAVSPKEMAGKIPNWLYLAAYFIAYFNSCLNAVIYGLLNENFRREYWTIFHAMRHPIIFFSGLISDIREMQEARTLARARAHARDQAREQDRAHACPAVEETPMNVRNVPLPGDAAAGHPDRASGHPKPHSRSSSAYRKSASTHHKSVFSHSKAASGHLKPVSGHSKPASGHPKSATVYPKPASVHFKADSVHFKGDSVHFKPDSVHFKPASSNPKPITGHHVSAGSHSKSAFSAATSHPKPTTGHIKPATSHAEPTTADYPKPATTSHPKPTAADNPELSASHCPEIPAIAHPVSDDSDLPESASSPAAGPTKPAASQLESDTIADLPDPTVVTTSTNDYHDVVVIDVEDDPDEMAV

An energy transfer of 2% was found for `CCN(CCN(CC)C(=O)C(Cc1c[nH]c2ccccc12)NC(=O)C(CCCCNS(=O)(=O)c1ccc2c(c1)S(=O)(=O)OC21c2ccc(N(CC)CC)cc2Oc2cc(N(CC)CC)ccc21)NC(=O)C1=CCCN(C)C1)Cc1ccccc1` (stereo not shown) [FG 229 F4] in this work.
